Assay results as given in patent US8951997B2, “Substituted isoquinoline derivative” (D. Western Therapeutics Institute, Inc., priority 2009, dated 2015).
Where a name gives a salt, the structure may show the parent alone.

Columns and labels:
[1] = system: rabbits (New Zealand White); test: Ocular hypotensive effect in rabbits; assay type: in vivo, rabbit; settings: Oryctolagus cuniculus, topical, 0.04 mL dropped to one eye, vehicle to contralateral eye, test compound solution concentration 10 (W/V), read-out: Maximum ocular hypotensive rate
Experimental: The compound of the present invention was administered to rabbits (New Zealand White, sex: male, 3 to 7 per group) and evaluated for its ocular hypotensive effect.
Each test compound was dissolved in a vehicle (1.04 g of sodium dihydrogen phosphate dihydrate and 0.5 g of sodium chloride dissolved in purified water and then adjusted to pH 7.0 with sodium hydroxide to make the total amount to 100 mL) to prepare a test compound solution with a concentration of 10 (W/V).
The intraocular pressures of the rabbits were measured using Tiolat TonoVet handheld tonometer immediately before administration of test compound. The test compound solution and the vehicle were dropped at a volume of 0.04 mL to one eye and the contralateral eye, respectively, and the intraocular pressures were measured over time in the same way as above. The rate of the intraocular pressure of the eye receiving the test compound solution to that of the eye receiving the vehicle was calculated as an ocular hypotensive rate.

rats (SD) = test: Blood pressure lowering effect in rats; assay type: in vivo, rat; settings: male, intraperitoneal, 10 mg/kg
Experimental: The compound of the present invention was intraperitoneally administered to rats (SD, sex: male, 6 rats per group) and evaluated for its blood pressure lowering effect. Example 18 was used as a test compound.
The test compound was dissolved in saline and diluted to prepare a test compound solution with a predetermined concentration.
The test drug was intraperitoneally administered at a dose of 10 mg/kg to the rats (6 rats per group), and their blood pressures and pulse rates were measured over time using Softron Indirect Blood Pressure Meter BP-98A.

[2] = system: rabbits (New Zealand White); test: Ocular hypotensive effect in rabbits; assay type: in vivo, rabbit; settings: Oryctolagus cuniculus, topical, 0.04 mL dropped to one eye, vehicle to contralateral eye, test compound concentration of 2%, read-out: Maximum ocular hypotensive rate
[3] = system: spontaneously hypertensive rats (SHR/Izm); test: Blood pressure lowering effect in spontaneously hypertensive rats; assay type: in vivo, rat; settings: male, intraperitoneal
Experimental: The compound of the present invention was intraperitoneally administered to spontaneously hypertensive rats (SHR/Izm, sex: male, 4 to 6 rats per group) and evaluated for its blood pressure lowering effect. Examples 32, 34, and 35 were used as test compounds.
Each test compound was dissolved in saline and diluted to prepare a test compound solution with a predetermined concentration.
The test drug was intraperitoneally administered at a dose of 10 mg/kg (except for 30 mg/kg for Example 34) to the animals (4 to 6 rats per group), and their blood pressures and pulse rates were measured over time using Softron Indirect Blood Pressure Meter BP-98A.

NG108-15 cells = test: Neurite outgrowth promoting effect; assay type: cell-based; settings: NG108-15 cells, 10, 3, 1, or 0.3 μmol/L, 24 hours, compared with cells cultured in the absence of the compound
Experimental: To examine the usefulness of the compound of the present invention as a therapeutic agent for neurodegenerative diseases, NG108-15 cells frequently used as a model of neurons were cultured in the presence of the compound of the present invention, which was then evaluated for its neurite outgrowth promoting effect. Examples 15 and 49 were used as test compounds.
Each test compound was dissolved in dimethyl sulfoxide and diluted to prepare a test compound solution with a predetermined concentration.
The NG108-15 cells (obtained from ATCC) were cultured in a Dulbecco's modified eagle's medium containing 5% fetal bovine serum and 1×HAT (hypoxanthine, aminopterin, and thymidine). The cells were inoculated at 12,000 cells/well to a 24-well plate and statically cultured at 37° C. for 12 hours in an environment of 5% CO2 and 95% air. Then, each test compound was added at a final concentration of 10, 3, 1, or 0.3 μmol/L. 24 hours later, the degree of neurite outgrowth was observed under an inverted microscope.

[4] = system: mouse model of spinal cord injury; test: Motor function recovering effect on a spinal cord injury model of the mouse; assay type: in vivo; settings: C57BL/6Cr mice, 3 mg/kg intraperitoneal once a day for 7 days, day 14 after operation, score 0 normal to 72 most serious, saline group 41
Experimental: To examine the usefulness of the compound of the present invention as a therapeutic agent for spinal cord injury, the mouse model of spinal cord injury was prepared and a motor function recovering effect after spinal cord injury was investigated.
Example 14 as a test compound was dissolved in saline and diluted to prepare a test compound solution with a predetermined concentration.
C57BL/6Cr mice (female, body weight: around 19 g, 6 to 8 […] per group) were anesthetized by halothane inhalation. The spinal cord at the level of the eighth thoracic vertebrae was compressed with 20 g of weight for 5 minutes to prepare a spinal cord injury model, according to the method described in the document (Acta Neuropathol. 100, 13-22 (2000)). The test compound was intraperitoneally administered at a dose of 3 mg/kg once a day for 7 consecutive days from the surgery day. After 1, 4, 7, 10, and 14 days from the preparation of the spinal cord injury model, the severity of neurological dysfunction was scored by a partial modification of the performance score described in J. Neurosurg. 93 (Spine 1), 94-101(2000). The details of the behavioral score are as follows:
Open field locomotion (rated 0 to 42)
Toe spread (rated 0 to 5)
Contact place response (rated 0 to 5)
Withdrawal reflexes (rated 0 to 5 for each reflex to extension, pain, and pressure stimulations)
Righting reflex (rated 0 to 5) […]

SMILES	inhibition in vivo at 10 % [1]	also measured
C[C@@H]1CNCCCN1S(=O)(=O)c1ccc2cnccc2c1 [Example 18, (R)-6-(2-methyl-1,4-diazepan-1-ylsulfonyl)isoquinoline dihydrochloride]	≥ 15%	pulse rate (rats (SD)): increased; systolic blood pressure lowered compared with the value before administration (rats (SD); maximum lowering): ≥ 30%
C[C@@H]1CCNCCN1S(=O)(=O)c1ccc2c(SCCN)nccc2c1 [Example 51, (R)-1-(2-aminoethylthio)-6-(7-methyl-1,4-diazepan-1-ylsulfonyl)isoquinoline trihydrochloride]	–	inhibition in vivo at 2 % [2]: ≥ 15%
C[C@@H]1CCNCCN1S(=O)(=O)c1ccc2cnccc2c1 [Example 34, (R)-6-(7-methyl-1,4-diazepan-1-ylsulfonyl)isoquinoline dihydrochloride]	≥ 15%	pulse rate ([3]; 30 mg/kg): increased
C[C@H]1CCNCCN1S(=O)(=O)c1ccc2cnccc2c1 [Example 32, (S)-6-(7-methyl-1,4-diazepan-1-ylsulfonyl)isoquinoline dihydrochloride]	≥ 15%	pulse rate ([3]; 10 mg/kg): increased; systolic blood pressure lowered compared with the value before administration ([3]; 10 mg/kg): 16%
C[C@H]1CNCCCN1S(=O)(=O)c1ccc2cnccc2c1Br [Example 15, (S)-5-bromo-6-(2-methyl-1,4-diazepan-1-ylsulfonyl)isoquinoline dihydrochloride]	≥ 15%	degree of neurite outgrowth (NG108-15 cells): remarkable neurite outgrowth
C[C@@H]1CNCCCCN1S(=O)(=O)c1ccc2c(SCCN)nccc2c1 [Example 52, (R)-1-(2-aminoethylthio)-6-(2-methyl-1,4-diazocan-1-ylsulfonyl)isoquinoline trihydrochloride]	–	inhibition in vivo at 2 % [2]: ≥ 15%
C[C@@H]1CCNC[C@@H](C)N1S(=O)(=O)c1ccc2cnccc2c1 [Example 35, (2R,7R)-6-(2,7-dimethyl-1,4-diazepan-1-ylsulfonyl)isoquinoline dihydrochloride]	≥ 15%	pulse rate ([3]; 10 mg/kg): increased
O=S(=O)(c1ccc2cnccc2c1Br)N1CCCNCC1 [Example 5, 5-bromo-6-(1,4-diazepan-1-ylsulfonyl)isoquinoline dihydrochloride]	≥ 15%	–
C[C@@H]1CCNCCCN1S(=O)(=O)c1ccc2cnccc2c1 [Example 38, (R)-6-(2-methyl-1,5-diazocan-1-ylsulfonyl)isoquinoline dihydrochloride]	≥ 15%	–
O=S(=O)(c1ccc2cnccc2c1)N1CCOCC1 [Example 9, 6-(morpholin-1-ylsulfonyl)isoquinoline hydrochloride]	5 to 15%	–
CC1(C)CNCCCN1S(=O)(=O)c1ccc2cnccc2c1 [Example 22, 6-(2,2-dimethyl-1,4-diazepan-1-ylsulfonyl)isoquinoline dihydrochloride]	≥ 15%	–
O=S(=O)(c1ccc2cnccc2c1)N1C[C@@H]2C[C@H]1CN2 [Example 7, 6-{(1S,4S)-2,5-diazabicyclo[2.2.1]heptan-2-ylsulfonyl}isoquinoline dihydrochloride]	≥ 15%	–
C[C@@H]1CCCNCCN1S(=O)(=O)c1ccc2cnccc2c1 [Example 37, (R)-6-(8-methyl-1,4-diazocan-1-ylsulfonyl)isoquinoline dihydrochloride]	≥ 15%	–
Cc1c(S(=O)(=O)N2CCCNC[C@@H]2C)ccc2cnccc12 [Example 49, (S)-5-methyl-6-(2-methyl-1,4-diazepan-1-ylsulfonyl)isoquinoline]	≥ 15%	degree of neurite outgrowth (NG108-15 cells): remarkable neurite outgrowth
C[C@@H]1CNCCCCN1S(=O)(=O)c1ccc2cnccc2c1 [Example 14, (R)-6-(2-methyl-1,4-diazocan-1-ylsulfonyl)isoquinoline dihydrochloride]	≥ 15%	neurological dysfunction score [4]: 33
O=S(=O)(c1ccc2cnccc2c1)N1CCCNCC1 [Example 3, 6-(1,4-diazepan-1-ylsulfonyl)isoquinoline dihydrochloride]	≥ 15%	–
